# In patent US20170204187A1, “METHODS OF TREATING AND PREVENTING CANCER DRUG RESISTANCE” (Genentech, Inc., priority 2014, published 2017):
# “Also recorded” adds a separate entry of the source.
# Assays:
# LOX-IMVI VemR cell line = test: LOX-IMVI VemR resensitization to vemurafenib by FGFR antagonists (FIG. 2B); type: cell-based; settings: for effect on the cell line / resensitization to vemurafenib: FGFR antagonist 1 μM in combination with 5 μM vemurafenib
# Method: FIG. 2A-E.|A cell line (“LOX-IMVI VemR”) was engineered to be resistant to vemurafienib. A, An image of an immunoblot of 11 cell lines probed for FGFR1 expression. B, The LOX-IMVI VemR cell line is not affected by 5 μM vemurafenib (i.e., “PLX”) as shown in the DMSO plot; however, the cell line is affected by 5 μM vemurafenib in combination with an antagonist of FGFR signalling (i.e., BGJ398, PD173074, and AP24534).
# The Lox-IMVI VemR cell line was used as the model of acquired resistance in B-raf mutant melanoma. 11 cell lines were tested for FGFR1 expression using a Western blot. Of the cell lines tested, FGFR1 expression was detected in the LOX-IMVI (vemurafenib sensitive) and LOX-IMVI VemR (vemurafenib resistant) lines (FIG. 2A).
# LOX-IMVI VemR cells = test: In vitro combination study vemurafenib + BGJ398, Vem-resistant cell outgrowth (FIG. 3A); type: cell-based
# [1] = tested on: HER2+ breast cancer models of innate resistance; test: Tumor volume, lapatinib + FGFR inhibitor (FIG. 20C); type: in vivo; settings: combination treatment of lapatinib and BGJ398
# SK-MEL-3 cell line = test: In vitro combination study vemurafenib + BGJ398 (FIG. 3A); type: cell-based; settings: PLX4032 combined with FGFR antagonist
# From the text: (§1) FIG. 3A-B.|FGFR-inhibition prevents Vem-resistant cell outgrowth. […] B, Expression patterns of select proteins are shown on West Blots in the presence of vemurafenib (PLX4032), an antagonist of FGFR signalling (NV-BGJ398), and/or FGF2.
# SK-MEL-24 cell line = test: as above; type: cell-based; settings: PLX4032 combined with FGFR antagonist
# From the text: as §1
# LOX-IMVI VemR tumors = test: In vivo tumor volume, vemurafenib resistant tumors; settings: for tumor volume / efficacy: combination treatment of vemurafenib and BGJ398
# Method: (§2) FIG. 4A-C.|The LOX-IMVI VemR cell line has FGFR-mediated vemurafenib resistance in vivo. A, LOX-IMVI cells (parental cell line) are sensitive to vemurafenib.
# (§3) The vemurafenib resistance and recovery of the LOX-IMVI VemR cell line was also studied in vivo. The tumor volume (mm^3) was measured in LOX-IMVI (parental, vemurafenib sensitive) tumors and in LOX-IMVI VemR (vemurafenib resistant) tumors in the presence of vemurafenib, BGJ398, or vemurafenib and BGJ398 ([…]).
# MDA-MB-453 cells = test: Innate resistance model, sensitization to lapatinib (FIG. 20B); type: cell-based; settings: 100 nM BGJ398 with 5 μM lapatinib
# Method: (§4) FIG. 20 A-C.|HER2+ breast cancer models of innate resistance. A, FGFR inhibitor (BGJ398) sensitizes HCC1569 cells to lapatinib. B, FGFR inhibitor (BGJ398) sensitizes MDA-MB-453 cells to lapatinib.
# (§5) The innate resistant HER2+ breast cancer cell lines were HCC1569 and MDA-MB-453. HC1569 expressed FGFR2 (detected by Western blot) and secreted FGF2 (detected by ELISA). FGFR ECD chimeras from the HCC1569 line were sensitized to lapatinib. Furthermore, HC1569 cells that were treated with FGFR inhibitor(s) sensitized the cells to lapatinib. […] MDA-MB-453 cells that were treated with FGFR inhibitor(s) sensitized the cells to lapatinib.
# (§6) HCC1569 and MDA-MB-453 cells were treated with 100 nM afatinib, 100 nM crizotinib, or 100 nM BGJ398 in the presence or absence of 5 μM lapatinib (FIGS. 20A and 20B).
# HCC1569 cells = test: Innate resistance model, sensitization to lapatinib (FIG. 20A); type: cell-based; settings: 100 nM BGJ398 with 5 μM lapatinib
# Method: as §4, §5, §6
# LOX-IMVI tumors = test: In vivo tumor volume, parental vemurafenib sensitive tumors; settings: for tumor volume: vemurafenib 25 mg/kg
# Method: as §2, §3
# [2] = tested on: HER2+ breast cancer cell lines (AU565, BT-474, HCC1954, SK-BR-3, and UACC-893); test: Block of FGF2 rescue in lapatinib/FGF2 treated cells (FIG. 19A); type: cell-based; settings: cells treated with lapatinib and FGF2, then FGFR pan inhibitor
# Method: FIG. 19 A-D.|FGFR4 mediates FGF2 rescue in HER2+ breast cancer. A, Percent rescue of cells treated with lapatinib and FGF2. B, Immunoblot of cells treated with lapatinib and FGF2. C, TCGA breast cancer samples (n=913) show high […] levels in breast cancer. D, HER2+ breast cancer cells are enriched for high FGFR4.
# HER2+ breast cancer cell lines (AU565, BT-474, HCC1954, SK-BR-3, and UACC-893) were treated with lapatinib and FGF2. Thereafter, the cells were either exposed to siRNA targeting FGFR1, FGFR2, FGFR3, or FGFR4 or exposed to the FGFR pan inhibitor BGJ398 (FIG. 19A). […] Immunoblots were also performed to detect IP/pTyr/IB:FGFR4, FGFR4, pERK, ERK, and actin (control) in cells treated with lapatinib in the presence and absence of FGF2 (FIG. 19B).
# B-raf mutant melanoma = settings: cited from earlier work
# [3] = tested on: 624 melanoma cells made resistant to PLX4032; test: pAKT in PLX4032-resistant 624 melanoma cells (FIG. 8B-C); type: cell-based; settings: treated with PLX4032
# Method: FIG. 8 A-C.|Activation of PI3K represents an alternative mechanism of B-raf-mutant melanomas. A, A synthetic lethal chemical screen identified PI3K-dependent resistance to PLX4032. […] Co-treatment with a […] was needed to growth arrest the 624 ml VemR cells in the presence of PLX4032.
# LOX-IMVI cells = test: Secreted factor rescue screen on LOX-IMVI (FIG. 23); type: cell-based
# From the text: FIG. 23 A-C.|Vemurafenib resistant and sensitive cell lines can be used to determine and anticipate paths to resistance in patients. LOX-IMVI cells were rescued by FGF1, FGF2, EGF, and HGF in the screen. A, LOX-IMVI VemR cells were re-sensitized to PLX4032 by FGFR inhibition. B, Dual resistant LOX-IMVI VemR/FGFRi (i.e., resistant to vemurafenib and FGFR inhibitor) cells were re-sensitized to PLX4032 by EGFR inhibition. C, Triple resistant LOX-IMVI VemR/FGFRi/Erlotinib cells were re-sensitized to PLX4032 by MET inhibition.
# [4] = tested on: HER2+ breast cancer cells; test: Immunoblot of downstream signalling after FGF2 exposure (FIG. 16); type: cell-based; settings: FGF2 50 ng/mL for 10 minutes or 24 hours, with or without lapatinib 2 μM
# Method: FIG. 16 A-B.|FGF2 reactivates key signalling pathways to promote resistance and stimulates sustained activation of downstream signaling. A, An immunoblot of cells exposed to FGF2 for 10 min compared to cells absent exposure. B, An immunoblot of cells exposed to FGF2 for 24 hrs compared to cells absent FGF2 exposure.
# Furthermore, it was determined that FGF2 reactivates key signalling pathways to promote resistance (FIG. 16). This was shown in a cell assay wherein HER2+ breast cancer cells were exposed to FGF2 (50 ng·mL) for 10 minutes in the presence or absence of lapatinib (2 μM) (FIG. 16A). Similarly, an assay was performed wherein HER2+ breast cancer cells were exposed to FGF2 (50 ng/mL) for 24 hours in the presence or absence of lapatinib (2 μM) (FIG. 16B).
# [5] = tested on: B-raf mutant melanoma cell lines; test: Secreted factor / FGF rescue screen, melanoma lines (FIG. 1, FIG. 15B); type: cell-based; settings: for rescue of tumor cells from B-raf and MEK antagonists: melanoma cell line, FIG. 1B
# Method: (§7) FIG. 1A-D.|Factors secreted by tumor cells and/or the tumor microenvironment contribute to drug resistance through activation of cell-surface receptors. […] D, Secreted growth factors which promote resistance to PLX4032 reactivate MAPK and PI3K pathways. Activation of MAPK by FGF2, MAPK and AKT by HGF and AKT by NRG1 and SCF are shown in 624 MEL cells in the presence of PLX4032. Treatments were 5 μM PLX4032 for 24 hours and 50 ng·mL FGF2, HGF, NRGB1, or SCF for 10 minutes.
# (§8) FIG. 15 A-C.|Screen of 10 melanoma cell lines and 10 breast cancer lines was performed to determine the role of FGF signalling in drug resistance. […] C, Summary of FGF receptors, their subfamily, and their ligands.
# (§9) FGF signalling and resistance was studied in 10 HER2+ breast cancer cell lines and in 10 B-raf mutant melanoma cell lines (FIG. 15). 7 of the 10 HER2+ breast cancer cell lines were rescued by FGF2 (FIG. 15A). 8 of the 10 B-raf mutant melanoma cell lines were rescued by FGF2 (FIG. 15B). Subsequent analysis determined that 50-70% of the melanoma lines with the V600E mutation were rescued by FGF2 (n=30).
# B-raf-mutant melanomas = test: Immunoblot of MAPK reactivation in FGF2-mediated rescue (FIG. 7A); type: cell-based
# From the text: FIG. 7 A-D.|Reactivation of MEK/ERK downstream of B-raf is a core mechanism of resistance in B-raf-mutant melanomas. A, MAPK signalling is required for FGF2-mediated resistance as shown by immunoblots. […] C, A synthetic lethal chemical screen was utilized to identify signalling pathways mediating resistance to PLX4032 in 12 acquired-resistance melanoma cell lines. […] D, Examples of the synthetic lethal chemical screen shown in FIG. 7C on specific cell lines.
# [6] = tested on: HER2+ breast cancer cell lines; test: FGF rescue screen, breast cancer lines (FIG. 15A); type: cell-based; settings: 10 HER2+ breast cancer cell lines
# Method: as §8, §9
# 624 MEL cells = test: Immunoblot of MAPK and PI3K pathway reactivation by secreted growth factors (FIG. 1D); type: cell-based; settings: 5 μM PLX4032 for 24 hours; 50 ng·mL factor for 10 minutes
# Method: as §7
compound,measurement,setting,value
Cc1ccc(C(=O)Nc2ccc(CN3CCN(C)CC3)c(C(F)(F)F)c2)cc1C#Cc1cnc2cccnn12 [AP24534],effect on the cell line / resensitization to vemurafenib,LOX-IMVI VemR cell line,resensitized to vemurafenib; also recorded: affected
"CCN1CCN(c2ccc(Nc3cc(N(C)C(=O)Nc4c(Cl)c(OC)cc(OC)c4Cl)ncn3)cc2)CC1 [BGJ398, 3-(2,6-Dichloro-3,5-dimethoxy-phenyl)-1-{6-[4-(4-ethyl-piperazin-1-yl)-phenylamino]-pyrimidin-4-yl}-1-methyl-urea]",response to treatment,LOX-IMVI VemR cells; combination treatment of vemurafenib and BGJ398,high response
same,response to treatment,LOX-IMVI VemR cells; single agent alone,minimal response
same,tumor volume,[1],decrease tumor volume; also recorded: Tumor volume decreases
same,response to PLX4032,SK-MEL-3 cell line,augmented response
same,response to PLX4032,SK-MEL-24 cell line,augmented response
same,tumor volume / efficacy,LOX-IMVI VemR tumors,did show a decrease in tumor volume
same,tumor volume / efficacy,LOX-IMVI VemR tumors; listed as NVP-BGJ398,potent efficacy
same,sensitization to lapatinib,MDA-MB-453 cells,rescue the cell lines from drug resistance; also recorded: sensitizes
same,sensitization to lapatinib,HCC1569 cells,rescue the cell lines from drug resistance; also recorded: sensitizes
same,re-emergence of tumors following the end of treatment,LOX-IMVI tumors; co-treatment with BGJ398 and vemurafenib,can be prevented
same,tumor volume,"LOX-IMVI tumors; BID and BGJ398 15 mg/kg, QD",tumor volume decreased
same,effect on the cell line / resensitization to vemurafenib,LOX-IMVI VemR cell line,resensitized to vemurafenib; also recorded: affected
same,percent rescue from acquired resistance to lapatinib and FGF2,[2],greatest percent rescue
"CCN(CC)CCCCNc1ncc2cc(-c3cc(OC)cc(OC)c3)c(NC(=O)NC(C)(C)C)nc2n1 [PD173074, N-[2-[[4-(diethylamino)butyl]amino]-6-(3,5-dimethoxyphenyl)pyrido[2,3-d]pyrimidin-7-yl]-N′-(1,1-dimethylethyl)-urea]",effect on the cell line / resensitization to vemurafenib,LOX-IMVI VemR cell line,resensitized to vemurafenib; also recorded: affected
"CCCS(=O)(=O)Nc1ccc(F)c(C(=O)c2c[nH]c3ncc(-c4ccc(Cl)cc4)cc23)c1F [vemurafenib, N-(3-{[5-(4-chlorophenyl)-1H-pyrrolo[2,3-b]pyridin-3-yl]carbonyl}-2,4-difluorophenyl)propane-1-sulfonamide]",response to treatment,LOX-IMVI VemR cells; single agent alone,minimal response
same,time to relapse following maximal response,"B-raf mutant melanoma; majority of patients, residual tumor",≤ 1 year
same,patients who respond,B-raf mutant melanoma; patients,majority
same,patients with tumor progression early in therapy,B-raf mutant melanoma; patients,10%
same,tumor volume,LOX-IMVI VemR tumors; vemurafenib alone,did not show a decrease in tumor volume
same,tumor volume,LOX-IMVI tumors; BID alone,tumor volume decreased; also recorded: sensitive
same,effect on the cell line,"LOX-IMVI VemR cell line; 5 μM vemurafenib (PLX) alone, DMSO plot",not affected
same,pAKT,[3],increase in pAKT
"FGF1: secreted factor, FGFR ligand",rescue in the secreted factor screen,LOX-IMVI cells,rescued
"FGF2: secreted growth factor, FGFR ligand, promotes resistance",downstream signalling,[4],sustained activation of downstream signalling
same,cell lines rescued by FGF2,[5]; 10 B-raf mutant melanoma cell lines,8 of the 10
same,rescue of tumor cells from B-raf and MEK antagonists,[5],most broadly and potently
same,melanoma lines with the V600E mutation rescued by FGF2,"[5]; subsequent analysis, n=30",50-70%
same,MAPK signalling in the presence of PLX4032,B-raf-mutant melanomas,activates MEK and ERK
same,cell lines rescued by FGF2,[6],7 of the 10
same,pathway activated in the presence of PLX4032,624 MEL cells,MAPK
same,rescue in the secreted factor screen,LOX-IMVI cells,rescued
HGF: secreted growth factor which promotes resistance to PLX4032,rescue of tumor cells from B-raf and MEK antagonists,[5],most broadly and potently
same,pathway activated in the presence of PLX4032,624 MEL cells,MAPK and AKT
same,rescue in the secreted factor screen,LOX-IMVI cells,rescued
SCF: secreted growth factor which promotes resistance to PLX4032,pathway activated in the presence of PLX4032,624 MEL cells,AKT
